One data set has as its target T1, recombinant human MMP-12 (Homo sapiens, UniProt P39900).
T1 construct: purchased R&D Systems 917-MP
Kind of data set: Competitive fluorogenic enzyme activity assay, MMP-12. The class given is biochemical. Particulars: fluorogenic substrate 5 μM, 5 nM enzyme, 30 min; read-out: IC50 toward MMP-12. Here is the method: Determination of the IC50 toward human MMP-2, MMP-9, MMP-12 and MMP-13 was performed by a competitive enzyme activity assay according to a literature procedure. […] The increase in fluorescence over time was measured using a SpectraMax M2e microplate reader (Molecular Devices Inc., CA, USA) with an excitation wavelength of 325 nm and an emission wavelength of 395 nm. The fluorescence intensity after 30 min was plotted as a function of the concentration of each of the compounds on a logarithmic scale to produce an inhibition curve that was subsequently fit with a sigmoidal function by a least squares method. The IC50 values were calculated from the inhibition curves using GraphPad Prism 6 (GraphPad Software, Inc., CA, USA).

A further data set concerns MMP-12. Also noted: method as in PMID 25438884. The note with it: fluorogenic inhibition assay; cited from earlier work.
Another data set has as its target T2, recombinant human MMP-13 (Homo sapiens, UniProt P45452).
T2 construct: purchased Anaspec AS72011
Put plainly: Competitive fluorogenic enzyme activity assay, MMP-13. The note with it: fluorogenic substrate 5 μM, 5 nM enzyme, 30 min; read-out: IC50 toward MMP-13. The class given is biochemical. Here is the method:
(§1) Determination of the IC50 toward human MMP-2, MMP-9, MMP-12 and MMP-13 was performed by a competitive enzyme activity assay according to a literature procedure. The assay was performed by incubating 5 μM of the synthesized fluorogenic peptide substrate Mca-Pro-Leu-Gly-Leu-Dpa(Dnp)-Ala-Arg-NH2 with 5 nM recombinant human MMP-2 (AS72005, Anaspec Inc., CA, USA), MMP-9 (911-MP, R&D Systems, MN, USA), MMP-12 (917-MP, R&D Systems) and MMP-13 (AS72011, Anaspec) along with various concentrations of ML5, I-ML5, PFB, PFP, IPFB, and IPFP (0.2–365 nM) in a buffer (pH 7.5, 50 mM tris(hydroxymethyl)aminomethane, 10 mM calcium chloride, 150 mM sodium chloride, and 0.01% Brij-35) containing 5% dimethyl sulfoxide. The increase in fluorescence over time was measured using a SpectraMax M2e microplate reader (Molecular Devices Inc., CA, USA) with an excitation wavelength of 325 nm and an emission wavelength of 395 nm. The fluorescence intensity after 30 min was plotted as a function of the concentration of each of the compounds on a logarithmic scale to produce an inhibition curve that was subsequently fit with a sigmoidal function by a least squares method. The IC50 values were calculated from the inhibition curves using GraphPad Prism 6 (GraphPad Software, Inc., CA, USA).

A further data set addresses T3, recombinant human MMP-2 (Homo sapiens, UniProt P08253).
T3 construct: purchased Anaspec Inc. AS72005
T3 sequence (P08253 110-660): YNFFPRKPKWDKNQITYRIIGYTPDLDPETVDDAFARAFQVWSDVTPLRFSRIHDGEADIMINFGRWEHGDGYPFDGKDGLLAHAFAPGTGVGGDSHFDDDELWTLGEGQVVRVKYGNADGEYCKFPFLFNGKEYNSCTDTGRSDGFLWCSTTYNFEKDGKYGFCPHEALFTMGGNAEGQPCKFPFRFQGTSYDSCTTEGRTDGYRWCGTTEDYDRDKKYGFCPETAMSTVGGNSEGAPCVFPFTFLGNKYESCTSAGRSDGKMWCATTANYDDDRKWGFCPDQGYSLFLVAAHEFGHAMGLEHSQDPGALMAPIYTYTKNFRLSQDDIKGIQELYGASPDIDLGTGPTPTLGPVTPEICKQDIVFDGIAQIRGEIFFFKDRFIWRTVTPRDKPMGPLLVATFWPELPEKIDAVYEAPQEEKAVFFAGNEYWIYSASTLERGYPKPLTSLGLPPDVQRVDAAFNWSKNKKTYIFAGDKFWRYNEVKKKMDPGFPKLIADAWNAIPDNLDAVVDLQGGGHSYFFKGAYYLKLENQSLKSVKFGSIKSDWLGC
Put plainly: Competitive fluorogenic enzyme activity assay, MMP-2. The data set is classed as biochemical. The note with it: fluorogenic substrate 5 μM, 5 nM enzyme, 30 min; read-out: IC50 toward MMP-2. Here is the method: as §1

Another data set concerns the target T4, recombinant human MMP-9 (Homo sapiens, UniProt P14780).
T4 construct: purchased R&D Systems 911-MP
Put plainly: Competitive fluorogenic enzyme activity assay, MMP-9. The class given is biochemical. The note with it: fluorogenic substrate 5 μM, 5 nM enzyme, 30 min; read-out: IC50 toward MMP-9. Here is the method:
as §1

For another data set, the system named is MMP-9. Also noted: method as in PMID 25438884. Particulars: fluorogenic inhibition assay; cited from earlier work.
On the set-up of data set [1]: method as in PMID 25822732. The note with it: cited from earlier work.

By IC50 is commonly meant the concentration that inhibits the measured activity by half.

Bounds are passed on as bounds.

T4 sequence (P14780 94-707): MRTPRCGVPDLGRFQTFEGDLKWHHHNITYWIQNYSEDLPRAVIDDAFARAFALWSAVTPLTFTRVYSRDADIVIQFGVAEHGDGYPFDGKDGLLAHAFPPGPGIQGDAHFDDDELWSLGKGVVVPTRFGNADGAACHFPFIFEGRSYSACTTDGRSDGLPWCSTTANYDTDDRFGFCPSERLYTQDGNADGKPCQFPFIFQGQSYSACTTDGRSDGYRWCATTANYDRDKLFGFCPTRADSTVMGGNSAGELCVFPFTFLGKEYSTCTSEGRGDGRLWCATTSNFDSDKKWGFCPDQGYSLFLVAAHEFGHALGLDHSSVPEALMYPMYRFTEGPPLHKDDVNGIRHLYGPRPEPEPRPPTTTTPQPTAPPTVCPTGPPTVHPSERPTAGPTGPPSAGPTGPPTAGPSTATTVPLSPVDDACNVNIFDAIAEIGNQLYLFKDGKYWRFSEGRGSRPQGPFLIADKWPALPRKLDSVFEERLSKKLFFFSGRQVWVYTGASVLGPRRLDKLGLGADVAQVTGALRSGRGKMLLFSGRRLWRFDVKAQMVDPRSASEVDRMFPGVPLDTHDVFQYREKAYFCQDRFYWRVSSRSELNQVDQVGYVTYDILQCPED
T1 sequence (P39900 106-470): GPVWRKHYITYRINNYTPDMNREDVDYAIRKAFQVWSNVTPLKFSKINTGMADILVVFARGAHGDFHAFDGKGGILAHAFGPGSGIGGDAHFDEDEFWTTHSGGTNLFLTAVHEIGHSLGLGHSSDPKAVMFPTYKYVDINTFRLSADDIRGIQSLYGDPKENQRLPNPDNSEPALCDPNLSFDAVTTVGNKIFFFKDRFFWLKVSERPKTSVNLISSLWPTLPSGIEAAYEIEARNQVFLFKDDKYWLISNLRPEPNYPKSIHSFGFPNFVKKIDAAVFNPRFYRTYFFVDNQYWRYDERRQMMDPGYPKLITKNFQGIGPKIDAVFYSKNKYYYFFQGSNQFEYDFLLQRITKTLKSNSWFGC

As for `CC(C)C[C@H](CC(=O)NO)C(=O)N[C@@H](Cc1ccccc1)C(=O)N[C@@H](CCCCN)C(N)=O` [ML5, reference compound], the IC50 is 2.8 ± 0.4 nM on recombinant human MMP-12; 2 nM with MMP-12; 22.4 ± 8.1 nM on recombinant human MMP-13; 9.6 ± 4.7 nM at recombinant human MMP-2; 37.9 ± 5.2 nM at recombinant human MMP-9; 19.5 nM with MMP-9.
Consider `CC(C)C[C@H](CC(=O)NO)C(=O)N[C@@H](Cc1ccccc1)C(=O)N[C@@H](CCCCNC(=O)c1ccc([18F])cc1)C(N)=O` [^18F-FB-ML5], for which the “accumulation ratio of lung to liver” value in data set [1] was < 0.1.
